Bridge positions count the residues as written; N and C are the ends. Peptide text beside a SMILES is read from it.
Experiments:
[1] = Plasma stability, mouse plasma; settings: for remaining at 2 h, 10 µM / remaining at 6 h, 10 µM / remaining at 24 h, 10 µM: Balb C, Li-heparin plasma; for remaining at 2 h, 10 µM / remaining at 6 h, 10 µM / remaining at 24 h, 10 µM / half-life: mouse; for half-life: plasma
[2] = Plasma stability, human plasma; settings: for remaining at 24 h, 10 µM / remaining at 2 h, 10 µM / remaining at 6 h, 10 µM / half-life: human; for remaining at 24 h, 10 µM: Li-heparin plasma; for remaining at 2 h, 10 µM / remaining at 6 h, 10 µM: human Li-heparin plasma; for half-life: plasma
anti-ALFA VHH = test: binding affinity to the anti-ALFA VHH (log(agonist) vs. response, variable slope); settings: for LogEC50: best-fit values, log(agonist) vs. response, variable slope; for EC50: binding to anti-ALFA VHH
NbALFA = test: SPR measurements of NbALFA binding (Biacore T200, multi cycle kinetics, 1:1 binding model); settings: for Kd / ka / kd: 25° C., HBS-EP+ buffer, biotinylated NbALFA captured
Experimental: Affinity measurements were performed using a Biacore T200 (GE Healthcare, Biacore T200 control Software 3.2). […] A freshly docked Biotin CAPture chip was rehydrated overnight in the instrument (standby mode). […] The immobilization of the Nanobody was done for 180 s at 10 μL/min on FC2 followed by quenching of unbound streptavidin by 0.1 mM biocytin for 60 s and 30 μL/min on both flow cells. […] After each cycle, the surface was regenerated for 120 s with 10 μL/min using regeneration solution. All measurements were performed at 25° C. using HBS-EP+ buffer (Cytiva Europe, Cat. no BR100669). The control responses from FC1 were subtracted by the sample measurement in FC2 (FC2−FC1) followed by subtraction of the 0 nM blank injection. Resulting binding curves of this multi cycle kinetic experiment were fitted using the Biacore T200 Evaluation Software 3.2 and a 1:1 binding model.

[3] = mouse plasma, 37° C., timepoint 0 h
[4] = mouse plasma, 37° C., timepoint 0 h, calibration range 0.1 to 10 μM
[5] = mouse plasma, 37° C., timepoint 2 h
[6] = mouse plasma, 37° C., timepoint 6 h
[7] = mouse plasma, 37° C., timepoint 24 h
[8] = Half-life time, mouse plasma, 37° C., incubation 24 h (triplicates) or 6 h (duplicates)
[9] = human plasma, 37° C., timepoint 0 h
[10] = human plasma, 37° C., timepoint 0 h, calibration range 0.1 to 10 μM
[11] = human plasma, 37° C., timepoint 2 h
[12] = human plasma, 37° C., timepoint 6 h
[13] = human plasma, 37° C., timepoint 24 h
[14] = Flag (half-life, assay exceeded), human plasma, 37° C.
[15] = Half-life time, human plasma, 37° C., incubation 24 h (triplicates) or 6 h (duplicates)

## CC(=O)N[C@@H](CO)C(=O)N[C@@H](CCCNC(=N)N)C(=O)N[C@@H](CC(C)C)C(=O)N[C@@H](CCC(=O)O)C(=O)N[C@@H](CCC(=O)O)C(=O)N[C@@H](CCC(=O)O)C(=O)N[C@@H](CC(C)C)C(=O)N[C@@H](CCCNC(=N)N)C(=O)N[C@H]1CCCCNC(=O)CC[C@@H](C(N)=O)NC(=O)[C@H]([C@@H](C)O)NC(=O)[C@H](CC(C)C)NC(=O)[C@H](CCCNC(=N)N)NC1=O [SD15193, Ac-Ser-Arg-Leu-Glu-Glu-Glu-Leu-Arg-(cyclo9)Lys-Arg-Leu-Thr-(cyclo13)Glu-NH2] (Ac-SRLEEELRKRLTE-NH2; lactam 9-13)
[1]
  remaining at 2 h, 10 µM: 87.5%
  remaining at 6 h, 10 µM: 72.7%
  remaining at 24 h, 10 µM: 39.4%
[1]; [3]
  Conc. (% of T0): 100.0 % of T0
  Mean (compound concentration): 3.29
  Tube 2 (compound concentration): 3.236
  Tube 3 (compound concentration): 3.311
[1]; [4]
  Tube 1 (compound concentration): 3.315
[1]; [5]
  Mean (compound concentration): 2.88
  Tube 1 (compound concentration): 2.864
  Tube 2 (compound concentration): 2.972
  Tube 3 (compound concentration): 2.789
[1]; [6]
  Mean (compound concentration): 2.39
  Tube 1 (compound concentration): 2.383
  Tube 2 (compound concentration): 2.443
  Tube 3 (compound concentration): 2.346
[1]; [7]
  Mean (compound concentration): 1.30
  Tube 1 (compound concentration): 1.253
  Tube 2 (compound concentration): 1.397
  Tube 3 (compound concentration): 1.236
[1]; [8]
  half-life: 18.5 h
[2]; [9]
  Conc. (% of T0): 100.0 % of T0
  Mean (compound concentration): 2.81
  Tube 2 (compound concentration): 2.845
  Tube 3 (compound concentration): 2.795
[2]; [10]
  Tube 1 (compound concentration): 2.799
[2]; [11]
  Mean (compound concentration): 2.71
  Tube 1 (compound concentration): 2.769
  Tube 2 (compound concentration): 2.647
  Tube 3 (compound concentration): 2.717
[2]; [12]
  Mean (compound concentration): 2.66
  Tube 1 (compound concentration): 2.774
  Tube 2 (compound concentration): 2.678
  Tube 3 (compound concentration): 2.527
[2]; [13]
  Mean (compound concentration): 2.09
  Tube 1 (compound concentration): 2.387
  Tube 2 (compound concentration): 1.983
  Tube 3 (compound concentration): 1.888
[2]
  remaining at 24 h, 10 µM: 74.2%
  remaining at 2 h, 10 µM: 96.4%
  remaining at 6 h, 10 µM: 94.5%
[2]; [14]
  half-life: > 24 h
[2]; [15]
  half-life: 56.1 h
anti-ALFA VHH
  LogEC50: 0.7818
  EC50: 6.05 nM
NbALFA
  Kd: 0.0556 nM
  ka: 1.95e+07 M⁻¹ s⁻¹
  kd: 0.00109 s⁻¹

## CC(=O)N[C@@H](CO)C(=O)N[C@@H](CCCNC(=N)N)C(=O)N[C@@H](CC(C)C)C(=O)N[C@@H](CCC(=O)O)C(=O)N[C@H]1CCC(=O)NCCCC[C@@H](C(=O)N[C@@H](CCCNC(=N)N)C(=O)N[C@@H](CC(C)C)C(=O)N[C@H](C(=O)N[C@@H](CCC(=O)O)C(N)=O)[C@@H](C)O)NC(=O)[C@H](CCCNC(=N)N)NC(=O)[C@H](CC(C)C)NC(=O)[C@H](CCC(=O)O)NC1=O [SD15194, Ac-Ser-Arg-Leu-Glu-(cyclo5)Glu-Glu-Leu-Arg-(cyclo9)Lys-Arg-Leu-Thr-Glu-NH2] (Ac-SRLEEELRKRLTE-NH2; lactam 5-9)
[1]
  remaining at 2 h, 10 µM: 95.5%
  remaining at 6 h, 10 µM: 85.4%
  remaining at 24 h, 10 µM: 62.3%
[1]; mouse plasma, 37° C., incubation 24 h (triplicates) or 6 h (duplicates), listed as SD 00015194
  Half-life time: 35.69 h
[1]; [3]
  Conc. (% of T0): 100.0 % of T0
  Mean (compound concentration): 2.57
  Tube 2 (compound concentration): 2.488
  Tube 3 (compound concentration): 2.617
[1]; [4]
  Tube 1 (compound concentration): 2.606
[1]; [5]
  Mean (compound concentration): 2.46
  Tube 1 (compound concentration): 2.526
  Tube 2 (compound concentration): 2.467
  Tube 3 (compound concentration): 2.373
[1]; [6]
  Mean (compound concentration): 2.20
  Tube 1 (compound concentration): 2.178
  Tube 2 (compound concentration): 2.256
  Tube 3 (compound concentration): 2.154
[1]; [7]
  Mean (compound concentration): 1.60
  Tube 1 (compound concentration): 1.543
  Tube 2 (compound concentration): 1.638
  Tube 3 (compound concentration): 1.62
[1]; Flag (half-life, assay exceeded), mouse plasma, 37° C.
  half-life: > 24 h
[1]; [8]
  half-life: > 24 h
[2]; human plasma, 37° C., incubation 24 h (triplicates) or 6 h (duplicates), listed as SD 00015194
  Half-life time: 33.48 h
[2]; [9]
  Conc. (% of T0): 100.0 % of T0
  Mean (compound concentration): 2.26
  Tube 2 (compound concentration): 2.271
  Tube 3 (compound concentration): 2.302
[2]; [10]
  Tube 1 (compound concentration): 2.215
[2]; [11]
  Mean (compound concentration): 2.09
  Tube 1 (compound concentration): 2.086
  Tube 2 (compound concentration): 2.052
  Tube 3 (compound concentration): 2.117
[2]; [12]
  Mean (compound concentration): 1.99
  Tube 1 (compound concentration): 1.884
  Tube 2 (compound concentration): 2.057
  Tube 3 (compound concentration): 2.041
[2]; [13]
  Mean (compound concentration): 1.36
  Tube 1 (compound concentration): 1.322
  Tube 2 (compound concentration): 1.377
  Tube 3 (compound concentration): 1.368
[2]
  remaining at 24 h, 10 µM: 59.9%
  remaining at 2 h, 10 µM: 92.1%
  remaining at 6 h, 10 µM: 88.1%
[2]; [14]
  half-life: > 24 h
[2]; [15]
  half-life: > 24 h
anti-ALFA VHH
  LogEC50: 0.7763
  EC50: 5.97 nM
anti-ALFA VHH; listed as Ac_5E-9Cyclo_ALFA
  EC50: 6 nM
NbALFA
  Kd: 0.0376 nM
  ka: 1.78e+07 M⁻¹ s⁻¹
  kd: 0.00067 s⁻¹
NbALFA; in words
  binding with respect to NbALFA: very good binding

## CC(=O)N[C@@H](CO)C(=O)N[C@@H](CCCNC(=N)N)C(=O)N[C@@H](CC(C)C)C(=O)N[C@@H](CCC(=O)O)C(=O)N[C@H]1CCC(=O)NCCCC[C@@H](C(=O)N[C@@H](CCCNC(=N)N)C(=O)N[C@@H](CCCNC(=N)N)C(=O)N[C@@H](CC(C)C)C(=O)N[C@H](C(=O)N[C@@H](CCC(=O)O)C(N)=O)[C@@H](C)O)NC(=O)[C@H](CC(C)C)NC(=O)[C@H](CCC(=O)O)NC1=O [SD15192, Ac-Ser-Arg-Leu-Glu-(cyclo5)Glu-Glu-Leu-(cyclo8)Lys-Arg-Arg-Leu-Thr-Glu-NH2] (Ac-SRLEEELKRRLTE-NH2; lactam 5-8)
[1]
  remaining at 2 h, 10 µM: 85.9%
  remaining at 6 h, 10 µM: 65.7%
  remaining at 24 h, 10 µM: 23.9%
[1]; [3]
  Conc. (% of T0): 100.0 % of T0
  Mean (compound concentration): 2.70
  Tube 2 (compound concentration): 2.705
  Tube 3 (compound concentration): 2.658
[1]; [4]
  Tube 1 (compound concentration): 2.731
[1]; [5]
  Mean (compound concentration): 2.32
  Tube 1 (compound concentration): 2.366
  Tube 2 (compound concentration): 2.256
  Tube 3 (compound concentration): 2.33
[1]; [6]
  Mean (compound concentration): 1.77
  Tube 1 (compound concentration): 1.851
  Tube 2 (compound concentration): 1.679
  Tube 3 (compound concentration): 1.791
[1]; [7]
  Mean (compound concentration): 0.64
  Tube 1 (compound concentration): 0.637
  Tube 2 (compound concentration): 0.656
  Tube 3 (compound concentration): 0.638
[1]; [8]
  half-life: 11.8 h
[2]; [9]
  Conc. (% of T0): 100.0 % of T0
  Mean (compound concentration): 2.56
  Tube 2 (compound concentration): 2.471
  Tube 3 (compound concentration): 2.553
[2]; [10]
  Tube 1 (compound concentration): 2.667
[2]; [11]
  Mean (compound concentration): 1.76
  Tube 1 (compound concentration): 1.788
  Tube 2 (compound concentration): 1.757
  Tube 3 (compound concentration): 1.731
[2]; [12]
  Mean (compound concentration): 0.88
  Tube 1 (compound concentration): 0.876
  Tube 2 (compound concentration): 0.868
  Tube 3 (compound concentration): 0.883
[2]; [13]
  Tube 1 (compound concentration): 0.031
  Tube 2 (compound concentration): 0.036
  Tube 3 (compound concentration): 0.046
[2]
  remaining at 2 h, 10 µM: 68.6%
  remaining at 6 h, 10 µM: 34.2%
[2]; [15]
  half-life: 3.89 h
anti-ALFA VHH
  LogEC50: 0.7765
  EC50: 5.98 nM
NbALFA
  Kd: 0.0551 nM
  ka: 1.05e+07 M⁻¹ s⁻¹
  kd: 0.000577 s⁻¹

Reference: patent publication US20250154202A1, “CYCLIC EPITOPE TAGS” (BIONTECH SE, priority 2022, published 2025)
